The record followed here is ChEMBL document CHEMBL1201862, “PubChem BioAssay data set” (2004).

Among the test systems are NCI-H226; EKVX; UACC-62; BT-549; HCT-15; SNB-75; MOLT-4; NCI-H23; HCT-116; Malme-3M; SR; SK-MEL-5; NCI/ADR-RES; SF-539; SK-MEL-28; T47D; U-251; SF-268; M14.
Common to all, as to test: inhibition of tumour cell growth, NCI panel, 48 h

Molecules are shown by their SMILES.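 96-well plates; 48 h exposure; 5 concentrations. Endpoints by linear interpolation between flanking doses. Not reached: highest tested concentration assigned. GI50 marks 50% less growth.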 Calls of active or inactive are those of the source. Cut-off read from the data, not from the text of the source: active = GI50 up to about 1.1 µM and inactive = higher. Some results are limits rather than exact numbers.

As for `CCCCCCCCC/C=C1/CC(CO)(COC(=O)CC(C(C)C)C(C)C)OC1=O` (stereo unspecified), the GI50 in the assay with NCI-H226 was 6.07 µM (inactive); in the assay with EKVX it was 4.35 µM (inactive); in the assay with UACC-62, 12.5 µM (inactive); in the assay on BT-549, 14.3 µM (inactive); in the assay on HCT-15, 14.4 µM; with SNB-75 it was 4.51 µM (inactive). For the same molecule, the GI50 in the assay with MOLT-4 is 1.16 µM (inactive); in the assay on NCI-H23, 13.1 µM (inactive); with HCT-116, 13.2 µM (inactive); with Malme-3M, 0.515 µM (active); with SR it was 17.8 µM (inactive); with SK-MEL-5 it was 3.16 µM (inactive). The GI50 in the assay on NCI/ADR-RES was 14.1 µM (inactive); in the assay on SF-539 it was 10.2 µM (inactive); with SK-MEL-28 it was 14.4 µM (inactive); in the assay on T47D, 4.91 µM (inactive); in the assay with U-251, 11.9 µM (inactive); with SF-268, 11.3 µM (inactive). The GI50 in the assay with M14 was 2.39 µM (inactive).

Regarding `O=C(O)c1ccccc1-c1ccccc1C(=O)Nc1ccc2c(c1)Cc1ccccc1-2`, the GI50 in the assay on NCI-H226 was 67.6 µM (inactive); in the assay on EKVX it was 22.1 µM (inactive); with UACC-62 it was 16.7 µM (inactive); in the assay on BT-549, 29.9 µM (inactive); with HCT-15, 20.4 µM; with SNB-75, 68.4 µM (inactive). Further, the GI50 in the assay on NCI-H23 is 18 µM (inactive); in the assay on HCT-116 it was 18 µM (inactive); in the assay with Malme-3M, 42.5 µM (inactive); with SR, 28.4 µM (inactive); in the assay with SK-MEL-5, 15.5 µM (inactive); with NCI/ADR-RES, 45 µM (inactive). Also, the GI50 in the assay on SF-539 is 21.9 µM (inactive); with SK-MEL-28, 40.8 µM (inactive); with T47D, 26.3 µM (inactive); with U-251 it was 28.6 µM (inactive); in the assay with SF-268, 43.1 µM (inactive); in the assay with M14, 21.6 µM (inactive).

As for `C/C=C1/CN2CCC34c5ccccc5N5C(=O)C(C6CC78c9ccccc9N9C(=O)C=CC(C%10CC7N6C/C%10=C/C)C98)=CC(C1CC23)C54` (stereo unspecified), the GI50 was 7.13 µM (inactive) in the assay on NCI-H226; 6.64 µM (inactive) in the assay on EKVX; 7.69 µM (inactive) with UACC-62; 8.77 µM (inactive) in the assay with BT-549; 3.75 µM in the assay on HCT-15; 6.62 µM (inactive) in the assay with SNB-75. The GI50 is 1.11 µM (active) in the assay with MOLT-4; 5.98 µM (inactive) in the assay on NCI-H23; 5.53 µM (inactive) in the assay on HCT-116; 7.82 µM (inactive) in the assay with Malme-3M; 0.667 µM (active) in the assay on SR; 5.83 µM (inactive) with SK-MEL-5. Besides, the GI50 is 8.34 µM (inactive) in the assay with NCI/ADR-RES; 1.11 µM (active) in the assay with SF-539; 5.41 µM (inactive) in the assay with SK-MEL-28; 11.1 µM (inactive) in the assay with T47D; 5.92 µM (inactive) with U-251; 6.89 µM (inactive) with SF-268. Also, the GI50 in the assay with M14 is 5.52 µM (inactive).

Turning to `C[C@@H]1CC[C@@]2(OC1)O[C@H]1C[C@H]3[C@@H]4CC[C@H]5C[C@@H](OC6OC(CO)C(OC7OC(CO)C(O)C(OC8OCC(O)C(O)C8O)C7OC7OC(CO)C(O)C(O)C7O)C(O)C6O)[C@H](O)C[C@]5(C)[C@H]4CC[C@]3(C)[C@H]1[C@@H]2C` (stereo partly specified), the GI50 with NCI-H226 is 6.47 µM (inactive); with EKVX, 5.35 µM (inactive); with UACC-62, 20 µM (inactive); in the assay with BT-549, 2.94 µM (inactive); with HCT-15, 3.4 µM; in the assay on SNB-75, 13.6 µM (inactive). Further, the GI50 in the assay with MOLT-4 is 11.3 µM (inactive); in the assay with NCI-H23, 2.11 µM (inactive); in the assay on HCT-116 it was 3.88 µM (inactive); in the assay with Malme-3M, 15.2 µM (inactive); in the assay with SR, 14.3 µM (inactive); with SK-MEL-5, 9.84 µM (inactive). Also, the GI50 in the assay with NCI/ADR-RES is 2.52 µM (inactive); in the assay on SF-539 it was 2.69 µM (inactive); in the assay with SK-MEL-28 it was 15.4 µM (inactive); in the assay with T47D, 5.38 µM (inactive); in the assay on U-251, 3.13 µM (inactive); with SF-268, 7.71 µM (inactive). For the same molecule, the GI50 with M14 was 15.2 µM (inactive).

As for `NC(=O)/C=C/NC(=O)/C=N\O`, the GI50 with NCI-H226 is > 100 µM (inactive); in the assay with EKVX, > 100 µM (inactive); in the assay on UACC-62, > 100 µM (inactive); with BT-549, > 100 µM (inactive); in the assay on HCT-15, greater than 100 µM; with SNB-75, > 100 µM (inactive). In addition, the GI50 in the assay on MOLT-4, with HCT-116, in the assay with Malme-3M, with SR, in the assay with SK-MEL-5 and with NCI/ADR-RES was > 100 µM (inactive) each time. For the same molecule, the GI50 in the assay on SF-539, in the assay with SK-MEL-28, in the assay on T47D, in the assay with U-251, with SF-268 and in the assay with M14 was > 100 µM (inactive) throughout.

Regarding `C[C@]12CC[C@H]3[C@@H](CC[C@]4(O)C[C@@H](O)CC[C@]34/C=N/O)[C@@]1(O)CC[C@@H]2C1=COC(=O)C1`, the GI50 was 0.391 µM (active) in the assay with NCI-H226; 0.1 µM (active) with EKVX; 0.303 µM (active) in the assay with UACC-62; 0.0675 µM (active) in the assay with BT-549; 0.158 µM in the assay with HCT-15; 0.332 µM (active) in the assay on SNB-75. Further, the GI50 was 0.0272 µM (active) in the assay with MOLT-4; 0.0644 µM (active) with NCI-H23; 0.0403 µM (active) in the assay on HCT-116; 0.169 µM (active) in the assay with Malme-3M; 0.0504 µM (active) in the assay on SR; 0.0583 µM (active) with SK-MEL-5. In addition, the GI50 with NCI/ADR-RES was 0.141 µM (active); in the assay with SF-539, 0.104 µM (active); in the assay with SK-MEL-28, 0.482 µM (active); in the assay on T47D, 0.317 µM (active); in the assay with U-251 it was 0.212 µM (active); in the assay with SF-268, 0.0728 µM (active). Further, the GI50 in the assay on M14 is 0.289 µM (active).

As for `CCCCCCCCCCCC[C@H](O)[C@H]1CC[C@H]([C@H](O)CCCC[C@H](O)CCCCC[C@@H](O)CC2=C[C@H](C)OC2=O)O1`, the GI50 in the assay with NCI-H226 was 2.84 µM (inactive); in the assay with EKVX it was 1.6 µM (inactive); in the assay with UACC-62, 1.19 µM (inactive); in the assay on BT-549, 0.0026 µM (active); with HCT-15, 5.56 µM; in the assay on SNB-75, 4.99 µM (inactive). For the same molecule, the GI50 with MOLT-4 was 2.87 µM (inactive); in the assay on NCI-H23, 0.00415 µM (active); in the assay on HCT-116 it was 1.76 µM (inactive); in the assay on Malme-3M it was 17.9 µM (inactive); in the assay on SR, 2.82 µM (inactive); in the assay on SK-MEL-5 it was 1.75 µM (inactive). Besides, the GI50 is 1.61 µM (inactive) in the assay with NCI/ADR-RES; 15.3 µM (inactive) in the assay with SF-539; 4.51 µM (inactive) in the assay on SK-MEL-28; 4.14 µM (inactive) with T47D; 13.8 µM (inactive) with U-251; 3.33 µM (inactive) in the assay with SF-268. The GI50 in the assay with M14 is 3.45 µM (inactive).
